Columns and labels:
Type in all cases: cell-based
[1] = biological target: T1, wild-type Androgen Receptor (AR-wt) (Homo sapiens (Human), UniProt P10275); test: LNCaP-AR-wt ANT reporter assay (antagonist mode); settings: for LNCaP-AR-wt ANT pIC50 / IC50: antagonist mode, pIC50 = −Log10(IC50 in Molar); for Emax: maximum % inhibition of R1881 control response over the tested concentration range, read-out: LNCaP-AR-wt ANT MAX % Inh; for IC50: read-out: LNCaP-AR-wt ANT pIC50 (converted)
[2] = biological target: T1, wild-type Androgen Receptor (AR-wt); test: LNCaP-AR-wt AG reporter assay (agonist mode); settings: for EC50: read-out: LNCaP-AR-wt AG pEC50 (converted); for Emax: maximum % stimulation (agonist response) over the tested concentration range, read-out: LNCaP-AR-wt AG MAX % Stim
[3] = biological target: T2, F876L mutant Androgen Receptor (AR-F876L) (Homo sapiens (Human), UniProt P10275, F877L); test: LNCaP-AR-F876L ANT reporter assay (antagonist mode); settings: for LNCaP-AR-F876L ANT pIC50 / IC50: antagonist mode, pIC50 = −Log10(IC50 in Molar); for Emax: maximum % inhibition of R1881 control response over the tested concentration range, read-out: LNCaP-AR-F876L ANT MAX % Inh; for IC50: read-out: LNCaP-AR-F876L ANT pIC50 (converted)
[4] = biological target: T2, F876L mutant Androgen Receptor (AR-F876L); test: LNCaP-AR-F876L AG reporter assay (agonist mode); settings: for EC50: read-out: LNCaP-AR-F876L AG pEC50 (converted); for Emax: maximum % stimulation (agonist response) over the tested concentration range, read-out: LNCaP-AR-F876L AG MAX % Stim
[5] = agonist mode, pEC50 = −Log10(EC50 in Molar)

T2 sequence (P10275 whole entry F877L): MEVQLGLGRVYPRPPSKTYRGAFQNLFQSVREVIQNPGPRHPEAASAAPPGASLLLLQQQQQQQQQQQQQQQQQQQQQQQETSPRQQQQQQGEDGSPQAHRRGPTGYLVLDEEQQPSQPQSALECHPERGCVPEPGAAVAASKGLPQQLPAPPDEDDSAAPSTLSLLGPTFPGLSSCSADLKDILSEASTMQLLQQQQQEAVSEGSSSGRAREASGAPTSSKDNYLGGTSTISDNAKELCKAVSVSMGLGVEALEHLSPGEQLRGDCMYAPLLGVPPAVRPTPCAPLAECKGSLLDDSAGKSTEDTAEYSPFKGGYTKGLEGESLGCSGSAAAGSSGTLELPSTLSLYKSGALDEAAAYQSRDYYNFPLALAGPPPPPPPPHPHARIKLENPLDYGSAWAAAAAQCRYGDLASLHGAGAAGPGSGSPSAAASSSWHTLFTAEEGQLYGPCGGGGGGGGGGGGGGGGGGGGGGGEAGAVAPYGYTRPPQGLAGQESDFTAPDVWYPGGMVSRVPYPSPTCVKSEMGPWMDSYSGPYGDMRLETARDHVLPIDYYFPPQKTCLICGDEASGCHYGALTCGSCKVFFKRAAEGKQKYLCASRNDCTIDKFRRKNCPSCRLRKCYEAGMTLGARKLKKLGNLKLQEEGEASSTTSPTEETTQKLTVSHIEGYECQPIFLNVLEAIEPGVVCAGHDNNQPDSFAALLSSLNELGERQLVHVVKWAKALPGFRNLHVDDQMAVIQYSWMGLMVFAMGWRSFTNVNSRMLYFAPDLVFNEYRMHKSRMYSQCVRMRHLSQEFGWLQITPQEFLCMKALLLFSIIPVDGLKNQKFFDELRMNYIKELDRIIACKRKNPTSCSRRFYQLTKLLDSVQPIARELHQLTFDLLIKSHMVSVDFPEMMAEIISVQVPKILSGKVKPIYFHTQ
T1 sequence (P10275 whole entry): as the sequence (P10275 whole entry F877L) above, with L877F counted along it

Emax [1] [%] | EC50 [2, 5] [µM] | Emax [2] [%] | Emax [3] [%] | EC50 [4, 5] [µM] | Emax [4] [%] | IC50 [1] [nM] | IC50 [3] [nM] | Compound | LNCaP-AR-wt ANT pIC50 [1] | LNCaP-AR-F876L ANT pIC50 [3] | LNCaP-AR-wt AG pEC50 [2, 5] | LNCaP-AR-F876L AG pEC50 [4, 5]
64.9 | > 15.1 | 0.4 | 74.1 | > 15.1 | -0.1 | 2140 | 1120 | CC(C)(C)OC(=O)N1CCN(C(=O)c2ccc(N3C(=S)N(c4cnc(C#N)c(C(F)(F)F)c4)C(=O)C34CCC4)cc2)CC1 [Cpd 32, tert-butyl 4-[4-[6-[6-cyano-5-(trifluoromethyl)-3-pyridyl]-5-oxo-7-thioxo-6,8-diazaspiro[3.4]octan-8-yl]benzoyl]piperazine-1-carboxylate] | – | – | – | –
92.9 | > 15.1 | -0.3 | 99.2 | > 15.1 | 0 | 3020 | 1260 | N#Cc1ncc(N2C(=O)C3(CCC3)N(c3ccc(O)nc3)C2=S)cc1Cl [Cpd 45, 3-chloro-5-[8-(6-hydroxy-3-pyridyl)-5-oxo-7-thioxo-6,8-diazaspiro[3.4]octan-6-yl]pyridine-2-carbonitrile] | – | – | – | –
101 | > 15.1 | 1.1 | 97.6 | > 15.1 | 0.3 | 219 | 110 | CC(C)(C)OC(=O)N1CCC(CNC(=O)c2ccc(N3C(=S)N(c4cnc(C#N)c(C(F)(F)F)c4)C(=O)C34CCC4)cc2)CC1 [Cpd 46, tert-butyl 4-[[[4-[6-[6-cyano-5-(trifluoromethyl)-3-pyridyl]-5-oxo-7-thioxo-6,8-diazaspiro[3.4]octan-8-yl]benzoyl]amino]methyl]piperidine-1-carboxylate] | – | – | – | –
100 | > 15.1 | 0.7 | 100 | > 15.1 | 0.5 | 316 | 145 | CC(C)(C)OC(=O)N1CCN(Cc2ccc(N3C(=S)N(c4cnc(C#N)c(C(F)(F)F)c4)C(=O)C34CCC4)cc2)CC1 [Cpd 47, tert-butyl 4-[[4-[6-[6-cyano-5-(trifluoromethyl)-3-pyridyl]-5-oxo-7-thioxo-6,8-diazaspiro[3.4]octan-8-yl]phenyl]methyl]piperazine-1-carboxylate] | – | – | – | –
98 | > 15.1 | 2.3 | 101 | > 15.1 | 1.7 | 53.7 | 24.5 | N#CCN1CCC(Oc2ccc(N3C(=S)N(c4cnc(C#N)c(Cl)c4)C(=O)C34CCC4)cc2)CC1 [Cpd 51, 3-chloro-5-[8-[4-[[1-(cyanomethyl)-4-piperidyl]oxy]phenyl]-5-oxo-7-thioxo-6,8-diazaspiro[3.4]octan-6-yl]pyridine-2-carbonitrile] | – | – | – | –
84.5 | > 15.1 | 0.4 | 85.2 | > 15.1 | 0.1 | 631 | 676 | CC(C)(C)OC(=O)N1CC(F)(F)CC1COc1ccc(N2C(=S)N(c3cnc(C#N)c(C(F)(F)F)c3)C(=O)C23CCC3)cc1 (stereo not shown) [Cpd 56, tert-butyl 2-[[4-[6-[6-cyano-5-(trifluoromethyl)-3-pyridyl]-5-oxo-7-thioxo-6,8-diazaspiro[3.4]octan-8-yl]phenoxy]methyl]-4,4-difluoro-pyrrolidine-1-carboxylate] | – | – | – | –
101 | > 15.1 | 0.2 | 98.4 | > 15.1 | 3.3 | 67.6 | 55 | C=CCN1CCC(Oc2ccc(N3C(=S)N(c4cnc(C#N)c(Cl)c4)C(=O)C34CCC4)cn2)CC1 [Cpd 89, 5-[8-[6-[(1-allyl-4-piperidyl)oxy]-3-pyridyl]-5-oxo-7-thioxo-6,8-diazaspiro[3.4]octan-6-yl]-3-chloro-pyridine-2-carbonitrile] | – | – | – | –
101 | > 15.1 | 0.5 | 99.7 | > 15.1 | 0.2 | 174 | 72.4 | C=CCN1CCC(Oc2ccc(N3C(=S)N(c4cnc(C#N)c(C)c4)C(=O)C34CCC4)cn2)CC1 [Cpd 99, 5-[8-[6-[(1-allyl-4-piperidyl)oxy]-3-pyridyl]-5-oxo-7-thioxo-6,8-diazaspiro[3.4]octan-6-yl]-3-methyl-pyridine-2-carbonitrile] | – | – | – | –
101 | > 15.1 | 0.3 | 100 | > 15.1 | 0.2 | 132 | 91.2 | CC(C)(C)OC(=O)NC1C(C)(C)C(Oc2ccc(N3C(=S)N(c4cnc(C#N)c(C(F)(F)F)c4)C(=O)C34CCC4)cc2)C1(C)C (stereo not shown) [Cpd 110, tert-butyl N-[3-[4-[6-[6-cyano-5-(trifluoromethyl)-3-pyridyl]-5-oxo-7-thioxo-6,8-diazaspiro[3.4]octan-8-yl]phenoxy]-2,2,4,4-tetramethyl-cyclobutyl]carbamate] | – | – | – | –

Second part, the compound before the results:

Compound | Emax [1] [%] | EC50 [2, 5] [µM] | Emax [2] [%] | Emax [3] [%] | EC50 [4, 5] [µM] | Emax [4] [%] | IC50 [1] [nM] | IC50 [3] [nM] | LNCaP-AR-wt ANT pIC50 [1] | LNCaP-AR-F876L ANT pIC50 [3] | LNCaP-AR-wt AG pEC50 [2, 5] | LNCaP-AR-F876L AG pEC50 [4, 5]
N#Cc1ncc(N2C(=O)C3(CCC3)N(c3ccc(O)nc3)C2=S)cc1C(F)(F)F [Cpd 18, 5-[8-(6-hydroxy-3-pyridyl)-5-oxo-7-thioxo-6,8-diazaspiro[3.4]octan-6-yl]-3-(trifluoromethyl)pyridine-2-carbonitrile] | 93.5 | > 15.1 | 0 | 99 | > 15.1 | 0 | – | – | 5.65 | 6.00 | – | –
CN1CCCC(Oc2ccc(N3C(=S)N(c4cnc(C#N)c(C(F)(F)F)c4)C(=O)C34CCC4)cc2)CC1 (stereo not shown) [Cpd 19, 5-{8-[4-(1-methylazaperhydroepin-4-yloxy)phenyl]-5-oxo-7-thioxo-6,8-diazaspiro[3.4]oct-6-yl}-3-(trifluoromethyl)pyridine-2-carbonitrile] | 101 | > 15.1 | 0.3 | 101 | > 15.1 | 1.6 | 661 | 200 | – | – | – | –
CN1CCC[C@H](Oc2ccc(N3C(=S)N(c4cnc(C#N)c(C(F)(F)F)c4)C(=O)C34CCC4)cc2)C1 [Cpd 20, 5-{8-[4-((3S)-1-methyl(3-piperidyloxy))phenyl]-5-oxo-7-thioxo-6,8-diazaspiro[3.4]oct-6-yl}-3-(trifluoromethyl)pyridine-2-carbonitrile] | 93.2 | > 15.1 | 0.2 | 97.7 | > 15.1 | -0.5 | 1820 | 513 | – | – | – | –
Cc1cc(N2C(=O)C3(CCC3)N(c3ccc(OC4CCSCC4)nc3)C2=S)cnc1C#N [Cpd 21, 3-methyl-5-[5-oxo-8-(6-thian-4-yloxy(3-pyridyl))-7-thioxo-6,8-diazaspiro[3.4]oct-6-yl]pyridine-2-carbonitrile] | 80.6 | > 15.1 | -0.1 | 69.9 | > 15.1 | 0.3 | 501 | 309 | – | – | – | –
COc1cc(N2C(=O)C3(CCC3)N(c3ccc(OC4CCN(C)CC4)nc3)C2=S)cnc1C#N [Cpd 25] | 101 | > 15.1 | 0 | 100 | > 15.1 | 0.2 | – | – | – | – | – | –
CN1CCC(Oc2ccc(N3C(=S)N(c4cnc(C#N)c(Cl)c4)C(=O)C34CCC4)cn2)CC1 [Cpd 26] | 101 | > 15.1 | 0.4 | 100 | > 15.1 | 0.5 | 55 | 69.2 | – | – | – | –
Cc1cc(N2C(=O)C3(CCC3)N(c3ccc(OCCCN(C)C)nc3)C2=S)cnc1C#N [Cpd 27, 5-[8-[6-[3-(dimethylamino)propoxy]-3-pyridyl]-5-oxo-7-thioxo-6,8-diazaspiro[3.4]octan-6-yl]-3-methyl-pyridine-2-carbonitrile] | 101 | > 15.1 | 0 | 101 | > 15.1 | -0.1 | 219 | 107 | – | – | – | –
COC(=O)C1CCC(N2C(=S)N(c3cnc(C#N)c(C(F)(F)F)c3)C(=O)C23CCC3)CC1 (stereo not shown) [Cpd 57, Methyl 4-[6-[6-cyano-5-(trifluoromethyl)-3-pyridyl]-5-oxo-7-thioxo-6,8-diazaspiro[3.4]octan-8-yl]cyclohexanecarboxylate] | 100 | > 15.1 | 0.3 | 99.1 | > 15.1 | 0.3 | 490 | 200 | – | – | – | –
CC(C)(C)OC(=O)N1C2CCC1C(F)C(Oc1ccc(N3C(=S)N(c4cnc(C#N)c(C(F)(F)F)c4)C(=O)C34CCC4)cc1)C2 (stereo not shown) [Cpd 85, tert-butyl 3-[4-[6-[6-cyano-5-(trifluoromethyl)-3-pyridyl]-5-oxo-7-thioxo-6,8-diazaspiro[3.4]octan-8-yl]phenoxy]-4-fluoro-8-azabicyclo[3.2.1]octane-8-carboxylate] | 88.3 | – | -0.1 | 85.8 | – | 0.6 | – | – | 6.46 | 6.37 | <4.82 | <4.82
